In US20070066627A1, “Hydrazone derivatives for combatting harmful insects and arachnids” (priority 2004, published 2007):

Experiments:
Assay type in all cases: in vivo
[1] = test system: Southern Armyworm (Spodoptera eridania), 2nd Instar Larvae; test: Southern armyworm leaf-dip test, 2nd instar larvae; conditions: foliar, 120 h, observation at 5 days, read-out: mortality in comparison with untreated controls
Method: 2.1 Southern Armyworm (Spodoptera eridania), 2nd Instar Larvae
The active compounds were formulated for testing the activity against insects and arachnids as a 10.000 ppm solution in a mixture of 35% acetone and water, which was diluted with water, if needed.
A Sieva lima bean leaf expanded to 78 cm in length is dipped in the test solution with agitation for 3 seconds and allowed to dry in a hood. The leaf is then placed in a 100×10 mm petri dish containing a damp filter paper on the bottom and ten 2nd instar caterpillars. At 5 days, observations are made of mortality, reduced feeding, or any interference with normal molting.

[2] = test system: Bean Aphid (aphis fabae); test: Bean aphid test on nasturtium plants; conditions: 72 h, plant dipped, after 3 days, read-out: mortality in comparison with untreated controls
From the text: 2.4 Bean Aphid (aphis fabae)
(§1) The active compounds were formulated in 50:50 acetone:water and 100 ppm Kinetic® surfactant.
Nasturtium plants grown in Metro mix in the 1st leaf-pair stage (variety ‘Mixed Jewle’) were infested with approximately 2-30 laboratory-reared aphids by placing infested cut plants on top of the test plants. The cut plants were removed after 24 hr. Each plant was dipped into the test solution to provide complete coverage of the foliage, stem, protruding seed surface and surrounding cube surface and allowed to dry in the fume hood. The treated plants were kept at about 25° C. with continuous fluorescent light. Aphid mortality was determined after 3 days.

[3] = test system: Green Peach Aphid (Myzus persicae); test: Green peach aphid test on pepper plants; conditions: 120 h, leaves dipped, after 5 days, read-out: mortality in comparison with untreated controls
From the text: 2.3 Green Peach Aphid (Myzus persicae)
as §1
Pepper plants in the 2nd leaf-pair stage (variety ‘California Wonder’) were infested with approximately 40 laboratory-reared aphids by placing infested leaf sections on top of the test plants. The leaf sections were removed after 24 hr. The leaves of the intact plants were dipped into gradient solutions of the test compound and allowed to dry.
Test plants were maintained under fluorescent light (24 hour photoperiod) at about 25° C. and 20-40% relative humidity. Aphid mortality on the treated plants, relative to mortality on check plants, was determined after 5 days.

[4] = test system: Silverleaf Whitefly (bemisia argentifolii); test: Silverleaf whitefly test on cotton plants; conditions: 72 h, cotyledons dipped, adults, 3 days after treatment, read-out: mortality compared to untreated controls
Method: 2.5 Silverleaf Whitefly (bemisia argentifolii)
as §1
Selected cotton plants were grown to the cotyledon state (one plant per pot). The cotyledons were dipped into the test solution to provide complete coverage of the foliage and placed in a well-vented area to dry. Each pot with treated seedling was placed in a plastic cup and 10 to 12 whitefly adults (approximately 3-5 day old) were introduced. The insects were collected using an aspirator and an 0.6 cm, non-toxic Tygon® tubing (R-3603) connected to a barrier pipette tip. The tip, containing the collected insects, was then gently inserted into the soil containing the treated plant, allowing insects to crawl out of the tip to reach the foliage for feeding. The cups were covered with a reusable screened lid (150 micron mesh polyester screen PeCap from Tetko Inc). Test plants were maintained in the holding room at about 25° C. and 20-40% relative humidity for 3 days avoiding direct exposure to the fluorescent light (24 hour photoperiod) to prevent trapping of heat inside the cup. Mortality was assessed 3 days after treatment of the plants.

[5] = test system: Cotton Aphid (aphis gossypii); test: Cotton aphid test on cotton cotyledons; conditions: 120 h, cotyledons dipped, after 5 days, read-out: mortality in comparison with untreated controls
From the text: 2.2 Cotton Aphid (aphis gossypii)
as §1
Cotton plants at the cotyledon stage (one plant per pot) were infested by placing a heavily infested leaf from the main colony on top of each cotyledon. The aphids were allowed to transfer to the host plant overnight, and the leaf used to transfer the aphids was removed. The cotyledons were dipped in the test solution and allowed to dry. After 5 days, mortality counts were made.

CC(C=NNC(=O)Cc1ccccc1)=Cc1ccccc1 [Compound 18]
mortality at 300 ppm [1]: > 80% | mortality at 300 ppm [2]: > 75%

CC(C=NNC(=O)Cc1ccccc1)=Cc1cccc(F)c1 [Compound 19]
mortality at 300 ppm [3]: > 75%

COc1ccc(CC(=O)NN=CC(C)=Cc2ccc(F)cc2)cc1OC [Compound 20]
mortality at 300 ppm [3]: > 75%

CC(C=NNC(=O)c1cccs1)=Cc1ccccc1 [Compound 50]
mortality at 300 ppm [4]: > 80%

O=C(NN=CC(Cl)=Cc1ccccc1)c1cccs1 [Compound 69]
mortality at 300 ppm [2]: > 75%

CC(C=NNC(=O)c1cccs1)=Cc1cccc(F)c1 [Compound 70]
mortality at 300 ppm [5]: > 75%

CC(C=NNC(=O)c1cccs1)=Cc1ccc(F)cc1 [Compound 71]
mortality at 300 ppm [5]: > 75% | mortality at 300 ppm [2]: > 75%

CC(C=NNC(=O)c1sccc1C)=Cc1ccccc1 [Compound 76]
mortality at 300 ppm [3]: > 75%

O=C(NN=CC(Cl)=Cc1ccccc1)c1ccc(Cl)s1 [Compound 97]
mortality at 300 ppm [1]: > 80%

O=C(NN=CC(Cl)=Cc1ccccc1)c1ccco1 [Compound 120]
mortality at 300 ppm [5]: > 75%

CC(C=NNC(=O)c1ccco1)=Cc1ccccc1 [Compound 121]
mortality at 300 ppm [5]: > 75%

CCC(C=NNC(=O)c1ccco1)=Cc1ccccc1 [Compound 126]
mortality at 300 ppm [5]: > 75% | mortality at 300 ppm [2]: > 75%

CC(C=NNC(=O)c1ccco1)=Cc1ccc(Cl)cc1 [Compound 128]
mortality at 300 ppm [3]: > 75%

O=C(NN=CC=Cc1ccccc1F)c1ccco1 [Compound 130]
mortality at 300 ppm [5]: > 75%

CC(C=NNC(=O)c1ccco1)=Cc1cccc(F)c1 [Compound 131]
mortality at 300 ppm [5]: > 75%

CC(C=NNC(=O)c1cc(C)nn1C)=Cc1ccccc1 [Compound 152]
mortality at 300 ppm [3]: > 75%

O=C(NN=CC(Cl)=Cc1ccccc1)c1ccccn1 [Compound 157]
mortality at 300 ppm [5]: > 75% | mortality at 300 ppm [2]: > 75%

CC(C=NNC(=O)c1ccccn1)=Cc1ccc(F)cc1 [Compound 158]
mortality at 300 ppm [4]: > 80%

CC(C=NNC(=O)c1ccccn1)=Cc1cccc(F)c1 [Compound 159]
mortality at 300 ppm [5]: > 75% | mortality at 300 ppm [2]: > 75%

CC(C=NNC(=O)c1cccnc1)=Cc1ccccc1 [Compound 160]
mortality at 300 ppm [1]: > 80%

CC(C=NNC(=O)c1cccnc1)=Cc1cccc(C(F)(F)F)c1 [Compound 161]
mortality at 300 ppm [1]: > 80%

O=C(NN=CC(Cl)=Cc1ccccc1)c1cccnc1 [Compound 162]
mortality at 300 ppm [1]: > 80%

CC(C=NNC(=O)c1cnccc1C(F)(F)F)=Cc1ccccc1 [Compound 168]
mortality at 300 ppm [2]: > 75%

CC(C=NNC(=O)c1cnccc1C(F)(F)F)=Cc1ccc(F)cc1 [Compound 169]
mortality at 300 ppm [2]: > 75%

O=C(NN=CC(Cl)=Cc1ccccc1)c1ccncc1 [Compound 170]
mortality at 300 ppm [2]: > 75%

CC(C=NNC(=O)c1ccncc1)=Cc1ccccc1 [Compound 171]
mortality at 300 ppm [2]: > 75%

CC(C=NNC(=O)c1ccncc1)=Cc1cccc(F)c1 [Compound 173]
mortality at 300 ppm [3]: > 75%

CC(C=NNC(=O)c1cnccn1)=Cc1ccccc1 [Compound 177]
mortality at 300 ppm [1]: > 80%

CC(C=NNC(=O)c1ccccc1)=Cc1ccc(F)cc1 [Compound 181]
mortality at 300 ppm [5]: > 75%

CC(C=NNC(=O)c1ccc(O)cc1)=Cc1ccc(F)cc1 [Compound 184]
mortality at 300 ppm [2]: > 75%

COc1ccc(C(=O)NN=CC(C)=Cc2ccccc2)cc1OC [Compound 185]
mortality at 300 ppm [1]: > 80%

COc1ccccc1C(=O)NN=CC(C)=Cc1ccc(F)cc1 [Compound 186]
mortality at 300 ppm [3]: > 75%

COc1ccccc1C(=O)NN=CC(C)=Cc1cccc(F)c1 [Compound 187]
mortality at 300 ppm [4]: > 80%

CCC(C=NNC(=O)c1ccc(F)cc1)=Cc1ccccc1 [Compound 189]
mortality at 300 ppm [4]: > 80%

CC(C=NNC(=O)c1ccc(F)cc1)=Cc1ccccc1 [Compound 190]
mortality at 300 ppm [1]: > 80%

CC(C=NNC(=O)c1ccc(F)cc1)=Cc1ccc(F)cc1 [Compound 191]
mortality at 300 ppm [2]: > 75%

O=C(NN=CC(Br)=Cc1ccccc1)c1ccccc1F [Compound 192]
mortality at 300 ppm [1]: > 80%

CCC(C=NNC(=O)c1ccccc1F)=Cc1ccccc1 [Compound 193]
mortality at 300 ppm [4]: > 80%

CC(C=NNC(=O)c1ccccc1F)=Cc1ccccc1 [Compound 194]
mortality at 300 ppm [5]: > 75% | mortality at 300 ppm [3]: > 75%

O=C(NN=CC(Cl)=Cc1ccccc1)c1ccccc1F [Compound 195]
mortality at 300 ppm [3]: > 75%

O=C(NN=CC=Cc1ccccc1)c1ccccc1F [Compound 196]
mortality at 300 ppm [2]: > 75%

O=C(NN=CC=Cc1ccccc1F)c1ccccc1F [Compound 197]
mortality at 300 ppm [3]: > 75%

CC(C=NNC(=O)c1ccccc1F)=Cc1cccc(F)c1 [Compound 198]
mortality at 300 ppm [1]: > 80% | mortality at 300 ppm [3]: > 75%

CC(C=NNC(=O)c1ccccc1F)=Cc1ccc(F)cc1 [Compound 199]
mortality at 300 ppm [2]: > 75%

CCC(C=NNC(=O)c1cccc(F)c1)=Cc1ccccc1 [Compound 200]
mortality at 300 ppm [3]: > 75%

CC(C=NNC(=O)c1cc(F)ccc1F)=Cc1ccc(F)cc1 [Compound 202]
mortality at 300 ppm [5]: > 75% | mortality at 300 ppm [2]: > 75%

CC(C=NNC(=O)c1cc(F)ccc1F)=Cc1cccc(F)c1 [Compound 203]
mortality at 300 ppm [5]: > 75%

CC(C=NNC(=O)c1cc(F)ccc1F)=Cc1ccccc1C [Compound 204]
mortality at 300 ppm [3]: > 75%

CC(C=NNC(=O)c1c(F)cccc1F)=Cc1cccc(F)c1 [Compound 207]
mortality at 300 ppm [5]: > 75%

CC(C=NNC(=O)c1ccc2ccccc2c1)=Cc1cccc(F)c1 [Compound 210]
mortality at 300 ppm [2]: > 75%

CC(C=NNC(=O)c1cc(C(C)C)on1)=Cc1ccccc1 [Compound 235]
mortality at 300 ppm [3]: > 75%

CC(C=NNC(=O)c1cc(C(C)C)on1)=Cc1ccc(F)cc1 [Compound 236]
mortality at 300 ppm [5]: > 75%

CC(C=NNC(=O)c1cc(C(C)C)on1)=Cc1cccc(F)c1 [Compound 237]
mortality at 300 ppm [3]: > 75%

CC(C=NNC(=O)c1cc(C(C)C)no1)=Cc1ccccc1 [Compound 238]
mortality at 300 ppm [1]: > 80%

CC(C=NNC(=O)c1cc(C(C)C)no1)=Cc1cccc(F)c1 [Compound 240]
mortality at 300 ppm [5]: > 75%

CC(C=NNC(=O)c1ccccn1)=Cc1cccc(C)c1 [Compound 253]
mortality at 300 ppm [2]: > 75%

CC(C=NNC(=O)c1cc(Cl)ccn1)=Cc1cccc(F)c1 [Compound 277]
mortality at 300 ppm [5]: > 75%

CC(C=NNC(=O)c1cc(Cl)ccn1)=Cc1ccccc1F [Compound 278]
mortality at 300 ppm [3]: > 75%

CC(C=NNC(=O)c1cnccn1)=Cc1ccccc1F [Compound 314]
mortality at 300 ppm [5]: > 75%

CC(C=NNC(=O)c1ccc(F)cc1F)=Cc1ccccc1 [Compound 318]
mortality at 300 ppm [1]: > 80%

CC(C=NNC(=O)c1ccc(F)cc1F)=Cc1ccc(F)cc1 [Compound 319]
mortality at 300 ppm [5]: > 75%

CC(C=NNC(=O)c1ccc(F)cc1F)=Cc1cccc(F)c1 [Compound 320]
mortality at 300 ppm [3]: > 75%

CC(C=NNC(=O)c1ccc(F)cc1F)=Cc1ccccc1F [Compound 321]
mortality at 300 ppm [3]: > 75%

CCC(C=NNC(=O)c1ccccn1)=Cc1ccccc1F [Compound 392]
mortality at 300 ppm [5]: > 75%

CCC(C=NNC(=O)c1ccccn1)=Cc1ccc(F)cc1 [Compound 393]
mortality at 300 ppm [3]: > 75%

CCC(C=NNC(=O)c1cccc(C)n1)=Cc1ccccc1F [Compound 394]
mortality at 300 ppm [5]: > 75%

CCC(C=NNC(=O)c1cccc(C)n1)=Cc1cccc(F)c1F [Compound 395]
mortality at 300 ppm [5]: > 75%

CC(C=NNC(=O)c1cccc(Cl)n1)=Cc1cccc(F)c1 [Compound 397]
mortality at 300 ppm [3]: > 75%

CC(C=NNC(=O)c1ncccc1F)=Cc1ccccc1 [Compound 398]
mortality at 300 ppm [5]: > 75%

CC(C=NNC(=O)c1ncccc1F)=Cc1ccc(F)cc1 [Compound 399]
mortality at 300 ppm [5]: > 75%

CC(C=NNC(=O)c1cccc(F)n1)=Cc1ccccc1 [Compound 400]
mortality at 300 ppm [3]: > 75%
